Where two headings read alike, the source gives them in different places.
Legend:
[1] = Solubility in PBS (pH 7.4) and simulated colonic fluid, saturated solutions by HPLC-UV; assay type: physicochemical; settings: thermodynamic from solid, saturated solution, ambient temperature
Experimental: (§1) The solubility and stability at room temperature of Example compound 1 and the free acid compound 5-chloro-4-hydroxy-1-methyl-2-oxo-N-phenyl-quinoline-3-carboxamide (described in Example 1a) above) was determined in PBS (pH 7.4) and in simulated colonic fluid (SCF) at ambient temperature. The SCF was the product FaSSCof obtained from Biorelevant.com prepared according to the manufacturer’s instructions. FaSSCof contains 0.15 mM sodium cholate, 0.3 mM Phospholipids, 0.1 mM Oleate, 120 mM sodium hydroxide, 45 mM TRIS and 76 mM maleate.
(§2) Saturated solutions were prepared in these solvents and the concentrations/impurity profile was determined by HPLC-UV using a calibration curve in the range of 1 to 150 µg/ml at 300 nm or 320 nm. Visual evaluation was also performed after every step over the testing period.

[2] = Stability in aqueous solutions (impurity profile by HPLC-UV); assay type: physicochemical; settings: PBS (pH 7.4) and SCF, room temperature, 48 and 72 hours
Experimental: as §1, §2
The samples were also analysed for the presence of impurities. After a period of 48 and 72 hours, all impurities were below the lower limit of quantitation.

[3] = Thermogravimetric analysis (TGA) and differential scanning calorimetry (DSC); assay type: physicochemical; settings: heating 20° C./min, nitrogen
Experimental: For the TGA analysis, approximately 5-10 mg of sample of Example Compound 1 was accurately weighed into a pierced Tzero aluminium pan and sealed with a pinhole lid using a crimper. The sample was then loaded into the chamber of a TGA thermal analyser at ambient temperature. A TA Instruments TGA5500 device was used. The sample was then heated at a rate of 20° C./min from 20° C. to 400° C. The purge gas used was nitrogen at a flow rate of 50 cm^3/min.
For the DSC analysis, approximately 2 mg of sample was accurately weighed into a pierced Tzero aluminium pan and sealed using a universal crimper. The sample was then loaded into the chamber of a DSC analyser at ambient temperature. A TA Instruments DSC2500 device was used. The sample was then heated at a rate of 20° C./min from 30° C. to 400° C. The purge gas used was nitrogen at a flow rate of 50 cm^3/min

[4] = Hygroscopicity by Dynamic Vapour Sorption (DVS); assay type: physicochemical; settings: 25° C.; for Hygroscopicity: DVS, 0 to 90% RH, potassium salt
Experimental: Dynamic Vapour Sorption (DVS) analysis was carried out on a sample of Example compound 1.
Approximately 20 mg of sample was placed into a wire-mesh vapour sorption balance pan and loaded into an ‘IgaSorp’ vapour sorption balance (Hiden Analytical Instruments). The sample was then dried by maintaining a 0% humidity environment until no further weight change was recorded.
The sample was then subjected to a step profile from 0 to 90% RH at 10% RH increments. The desorption isotherm was from 90% RH o 0% RH in 10% RH steps. The weight change during the sorption/desorption cycles were then monitored, allowing for the hygroscopic nature of the sample to be determined. Analysis was performed using the following parameters: • Analysis Mode F1 • Wait Time 99% • Sample Temperature 25° C. • Min Time Out 30 Mins • MaxTime Out 180 Mins • Gas Flow Rate 250 ml/min

[5] = system: CD4+ adoptive transfer induced inflammatory bowel disease; assay: CD4+ adoptive transfer induced inflammatory bowel disease in mice; assay type: in vivo
Experimental: The efficacy of the 5-chloro-4-hydroxy-1-methyl-2-oxo-N-phenyl-quinoline-3-carboxamide potassium salt in inhibiting inflammation/edema associated with inflammatory bowel disease was evaluated in a CD4+ adoptive transfer induced inflammatory bowel disease in mice.
On study day -1, SCID mice were weighed and evenly distributed into treatment groups based on body weight.
On study day 0, Balb/C mice were terminated, and spleens obtained for CD4^+CD45RB^high cell isolation (Using SCID IBD Cell Separation Protocol). After cells were sorted and obtained, each animal in the treatment groups received an IP injection of CD4^+CD45RB^high cells at a minimum 4x10^5 cells (200 µl/mouse injections). A naive group of mice was followed through the experiment without receiving the injection of cells. The naive group comprised 5 animals.
On study day 21, treatment with 5-chloro-4-hydroxy-1-methyl-2-oxo-N-phenylquinoline-3-carboxamide potassium salt (1 mg/kg, daily day 21 to 49) was initiated. The compound was formulated as a 0.1 mg/mL suspension with sodium carboxymethyl cellulose (1%, w/v). Mice received either the 5-chloro-4-hydroxy-1-methyl-2-oxo-N-phenyl-quinoline-3-carboxamide potassium salt (Example compound 1) or vehicle. Each of those groups comprised 10 animals.
On study day 49, animals were anesthetized with Isoflurane and bled to exsanguination followed by cervical dislocation. The entire colon was removed, measured, and weighed. The colon was analysed for its level of interferon-γ and IL-22. The inflammation in the colons was also scored by visual and histopathological assessments.

[6] = In vivo pharmacokinetic study in rats after oral dosing; design: species or system Sprague Dawley rats; settings: 1 mg/kg oral; for Level in plasma after oral dosing: 15 min to 24 h post dose
Experimental: An in vivo pharmacokinetic study in rats was performed to determine if 5-chloro-4-hydroxy-1-methyl-2-oxo-N-phenyl-quinoline-3-carboxamide potassium salt (example compound 1) can be absorbed and detected systemically after oral dosing.
4 male Sprague Dawley rats, approximately 225 g - 250 g at dosing were dosed with 1 mg/kg of Example compound 2 formulated as a 0.1 mg/mL suspension with sodium carboxymethyl cellulose (1%, w/v). Blood samples were taken at 15 min, 30 min, 1 h, 2 h, 4 h, 6 h, 8 hand 24 h post dose
At each blood sampling approximately 250 µL blood was sampled in K3EDTA vials and approximately 100 µL plasma was also prepared.
The plasma samples were prepared by mixing 50 µL plasma with 250 µL of internal standard solution (20 ng/ml of phenacetin in ACN with 1% formic acid), mixed and centrifuged (20 min, 4000 rpm).
Plasma samples were transferred to Waters Ostro 96-well plate and drawn through the plate by applying 6-8 psi positive pressure for 10 min. 100 µL of supernatant was further diluted with 50 µL UP water and sample was submitted to analysis.
The standard and QC samples were prepared into blank rat colon homogenate and blank rat plasma. Standards were spiked into concentrations 0.1 - 10000 ng/ml of the analytes, QC samples into 3, 30, 300 and 3000 ng/ml, and were otherwise treated as samples.

With `Cn1c(=O)c(C(=O)Nc2ccccc2)c([O-])c2c(Cl)cccc21.[K+]` [Example compound 1, 5-chloro-4-hydroxy-1-methyl-2-oxo-N-phenyl-quinoline-3-carboxamide potassium salt] the solubility ([1]; aqueous buffer, PBS (pH 7.4), read-out: Solubility in PBS (pH7.4)) was 0.91 µg/mL, the solubility ([1]; simulated colonic fluid (FaSSCof), fassgf or other biorelevant, SCF (FaSSCof), read-out: Solubility in simulated colonic fluid (SCF)) was 7.99 µg/mL and the “Stability in aqueous solution (impurities)” value [2] was “stable in aqueous solution”. The Degradation temperature ([3]; listed as 5-chloro-4-hydroxy-1-methyl-2-oxo-N-phenyl-quinoline-3-carboxamide potassium sal, potassium salt) was 347 °C, the Degradation temperature ([3]; listed as Example Compound 1, potassium salt) was 347 °C ±2 °C and the Degradation temperature ([3]; potassium salt) was 347 °C. The Hygroscopicity ([4]; listed as 5-chloro-4-hydroxy-1-methyl-2-oxo-N-phenylquinoline-3-carboxamide potassium salt) was “not hygroscopic”, the Hygroscopicity [4] was “non-hygroscopic” and the “Reversible weight gain (DVS)” value ([4]; analysed to 80% RH) was “less than 0.2%”. The Body weight change ([5]; 1 mg/kg daily day 21 to 49, SCID mice, vs vehicle, FIG. 4) was “less weight loss”, the “Colon level of inflammatory markers (interferon-γ and IL-22)” value ([5]; 1 mg/kg daily day 21 to 49, day 49, vs vehicle, FIG. 5) was “lower levels of inflammatory markers” and the “Colon inflammation scores (visual and histopathological)” value ([5]; 1 mg/kg daily day 21 to 49, day 49, vs vehicle, FIG. 6) was “fewer signs of inflammation”. The “Inhibition of inflammation/edema associated with inflammatory bowel disease” value ([5]; CD4+ adoptive transfer model in mice, summary statement) was “effective in inhibiting inflammation/edema”, the “Level in plasma after oral dosing” value ([6]; FIG. 7, listed as 5-chloro-4-hydroxy-1-methyl-2-oxo-N-phenyl-quinoline-3-carboxamide potassium sal, potassium salt) was “absorbed through the intestine into the plasma” and the “Level in plasma after oral dosing” value ([6]; FIG. 7, potassium salt) was “detected in the plasma”. For the same molecule, the Clearance from plasma ([6]; FIG. 7) was “rapidly cleared”.
